Laboratory results published in paper PMC4551797 (PLoS ONE, 2015).
Like-named read-outs stand apart in the source and are kept apart here.

Legend:
[1] = test system: C57BL/6 mice; experiment: Acute in vivo incretin secretion assay (plasma GLP-1 and PYY AUC); conditions: fasted mice, 3-hour time course
Text: Plasma was separated by centrifugation, aliquoted, and analyzed for GLP-1 (X-36) amide (Mesoscale Discovery) and total PYY (Millipore). Resulting raw data was used to generate area under the curve analyses (AUCs).

[2] = test system: HEK-293 cells; experiment: cAMP production in untransfected HEK-293 cells (specificity control); type: cell-based; conditions: Homo sapiens, HEK293, read-out: cAMP production: no elevation up to
Protocol: (§1) HEK-293 cells were obtained from ATCC and a clonal HEK-293 line overexpressing mouse TGR5 was prepared. Both were maintained in Dulbecco’s modified Eagle’s medium (DMEM) containing 10% fetal bovine serum (FBS) and penicillin /streptomycin. Mouse STC-1 cells were obtained from ATCC under agreement with the Cold Spring Harbor Laboratories and maintained in DMEM containing 10% FBS and penicillin /streptomycin. NCI-H716 cells were obtained from ATCC and were maintained in RPMI-1640 with 10% FBS. NCI-H716 cells were cultured in 96 well plate coated with Matrigel (BD). After 72 hours, cAMP production stimulated with TGR5 agonists was measured using HTRF cAMP assay kit (CISBIO). The level of cAMP in suspensions of STC-1 cells stimulated with increasing concentrations of TGR5 agonists was also determined. […] The production of GLP-1 was determined using a GLP-1 Assay (7–36) amide kit (Mesoscale Discovery) following the manufacturer’s instructions. […]
(§2) Compound 18 is a novel small molecule agonist of TGR5 developed by Eli Lilly and Company (MW = 508.62, Fig 2A). […] In order to determine potency of compound 18 for the mouse and human TGR5 receptor in cells with endogenous levels of receptor, we measured compound 18-stimulated cAMP production and GLP-1 secretion in both mouse (STC-1) and human (NCI-H716) enteroendocrine cell lines, that we have shown to express TGR5 natively (Fig 1). […]

[3] = target: T1, mouse TGR5 (Mus musculus, UniProt Q80SS6); experiment: cAMP production in HEK-293 cells stably transfected with the mouse TGR5 gene (HTRF cAMP assay); type: cell-based; set-up: expressed in transfected cells
T1 sequence (Q80SS6 1-329): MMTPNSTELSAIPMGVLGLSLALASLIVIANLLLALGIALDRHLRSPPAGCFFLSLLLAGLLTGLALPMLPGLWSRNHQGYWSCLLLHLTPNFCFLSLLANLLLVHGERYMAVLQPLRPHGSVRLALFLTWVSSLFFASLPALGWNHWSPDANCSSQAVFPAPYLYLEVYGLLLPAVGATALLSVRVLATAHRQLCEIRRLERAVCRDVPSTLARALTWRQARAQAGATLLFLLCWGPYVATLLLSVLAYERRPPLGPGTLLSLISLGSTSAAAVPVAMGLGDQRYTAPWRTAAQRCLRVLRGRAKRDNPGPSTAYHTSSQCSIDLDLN
Protocol: as §1, §2

[4] = test system: NCI-H716 cells; experiment: GLP-1 secretion in NCI-H716 enteroendocrine cells; type: cell-based; conditions: Homo sapiens
Protocol: as §1, §2

[5] = test system: C57BL/6 mice; experiment: Oral glucose tolerance test with hormone measurement; type: in vivo, mouse; conditions: 30 mg/kg oral, glucose 3 g/kg
Protocol: For measurement of glucose only, overnight-fasted C57BL/6 mice in a normal light cycle were orally dosed with vehicle or compound, followed by an oral bolus of 3 g/kg glucose at 15 minutes post compound. At 0, 20, 40, 60, and 120 minutes post glucose dose, blood glucose was assessed via glucometers. Resulting raw data was used to generate AUCs. For measurement of hormones and glucose, overnight-fasted C57BL/6 mice acclimated for two weeks to a reverse light cycle were orally dosed with vehicle or compound, followed by an oral bolus of 3 g/kg glucose at 15 minutes post compound. At 0, 2, 5, 10, 20, 40, and 60 minutes post glucose dose, blood glucose was assessed via glucometers, followed immediately by collection of plasma for active GLP-1 (Mesoscale Discovery), insulin (Mesoscale Discovery), and total PYY. Glucose tolerance tests in diet-induced obese (DIO) C57BL/6 mice were performed in overnight-fasted animals dosed either acutely or after 2-week administration with vehicle or compound 18 at 60 mg/kg, followed 30 minutes post compound by an oral bolus of 2 g/kg glucose. At 0, 15, 30, 60, and 120 minutes post glucose dose, blood glucose was assessed via glucometers. Resulting raw data was used to generate AUCs.
To evaluate glucose, insulin, GLP-1, and PYY levels throughout the OGTT, each time-point consisted of a separate group of mice that were used to record glucose by use of a glucometer followed by terminal bleeds for measurement of active GLP-1, total PYY, and insulin. AUCs were then calculated for the entire hour of the OGTT. […] Changes in insulin AUCs were not increased with treatment of either sitagliptin or compound 18, likely due to the lower glucose levels reducing the drive for glucose-stimulated insulin secretion (Fig 5D).
Fig 5 Compound 18 increases GLP-1 and PYY and lowers the glucose and insulin excursions as compared to sitagliptin in an OGTT in C57BL/6 mice. […] Plasma was analyzed for active GLP-1 (A), total PYY (B), and insulin (D), while blood glucose was measured by glucometers (C).

[6] = test system: wild-type mice; experiment: Three-day study on GLP-1, PYY and bile weight in wild-type littermates; conditions: 100 mg/kg oral BID 3 days, 30 min after last dose
Protocol: C57BL/6 mice, Tgr5 KO mice, or their wild-type littermate controls were orally dosed with vehicle or compounds twice per day for 3 days, with overnight fasting performed on the evening of day 2. On the morning of day 3, animals were dosed orally with compounds and then euthanized by CO2 asphyxiation at 30 minutes after the fifth dose. Plasma was collected for analysis of GLP-1 (X-36) amide as mentioned above, followed immediately by incision into the abdominal cavity to remove and weigh bile from the gallbladder.

CC(=O)N1CCC(C(C)N(C(=O)COc2cccc3sc4nc(C)cn4c23)c2ccc(F)cc2)CC1 (stereo not shown) [compound 18]
GLP-1 AUC increase over vehicle ([1]; 3 mg/kg oral): 1.2 fold over vehicle
PYY AUC increase over vehicle ([1]; 3 mg/kg oral): 1.1 fold over vehicle
GLP-1 AUC increase over vehicle ([1]; 10 mg/kg oral): 2.0 fold over vehicle
PYY AUC increase over vehicle ([1]; 10 mg/kg oral): 1.5 fold over vehicle
GLP-1 AUC increase over vehicle ([1]; 30 mg/kg oral): 5.7 fold over vehicle
PYY AUC increase over vehicle ([1]; 30 mg/kg oral): 3.1 fold over vehicle
GLP-1 AUC increase over vehicle ([1]; 100 mg/kg oral): 12.1 fold over vehicle
PYY AUC increase over vehicle ([1]; 100 mg/kg oral): 4.9 fold over vehicle
EC50 [2]: > 30 µM
EC50 ([3]; HEK-293 cells over-expressing mouse TGR5, read-out: EC50, cAMP production): 24.7 nM
EC50 ([3]; cAMP, unit inferred, x-axis in nM, read-out: EC50 HEK-293-mTGR5 (Fig 2B inset)): 24.7 nM
EC50 [4]: 2660 nM
AUC of active GLP-1 during OGTT ([5]; 1 hour): superior AUC for active GLP-1 above both vehicle and sitagliptin
AUC of total PYY during OGTT ([5]; 1 hour): higher increase in the AUC of total PYY above both vehicle and sitagliptin
insulin AUC during OGTT ([5]; 1 hour): not increased
glucose excursion during OGTT ([5]; versus sitagliptin 10 mg/kg): levels indistinguishable from those of sitagliptin-treated animals
GLP-1 [6]: significant increase
PYY [6]: significant increase
bile weight [6]: significant increase
